In patent US5652239A, “Pyridazinedione derivatives useful in treatment of neurological disorders” (Imperial Chemical Company, priority 1991, dated 1997):

Legend:
[1] = tested on: NMDA receptor-mediated synaptic transmission in hippocampal slices; details: reference antagonists, 0 Mg++, general statement; cited from earlier work
[2] = tested on: neuronal damage in the hippocampus; test: Test D: ischemia induced by carotid occlusion in the gerbil model; assay type: in vivo, adult female Mongolian gerbils; details: 10 mg/Kg intraperitoneally, 45 minutes before and 5 minutes after occlusion
Description: (§1) The actions of compounds of formula I as antagonists at the glycine receptor of the NMDA receptor complex can be shown by one or more standard tests such as the [^3 H]-glycine binding assay (Test A), by functional assays in vitro such as tests for measuring glutamate-evoked contractions of the guinea pig ileum (Test B) and/or tests for measuring antagonism of NMDA-induced evoked response in hippocampal slices (Test C), and by tests in vivo such as ischemia induced by carotid occlusion in the gerbil model (Test D).
When testing in vivo using the gerbil ischemic model, adult female Mongolian gerbils (50-70 g) are anesthetized with 2 to 3% halothane. The bilateral common carotid arteries at the neck are exposed and occluded with microaneurysm clips. After 10 min (unless specified), the clips are removed and the blood flow through the carotid arteries is restored and the skin is sutured. […] Gross behavioral observations along with motor activity are recorded for 2 hr on the first (24 hr) day following the occlusion. […]
Sections (7 micron) are evaluated from each brain. […] The average brain damage rating score for each group is recorded, and the damage scores of the drug treated group are compared to the vehicle-treated group using Wilcoxon-Rank Sum test. […]

[3] = molecular target: T1, glycine receptor of the NMDA receptor complex (Rattus norvegicus, UniProt P35439); test: Test A: [^3 H]-glycine binding assay; design: species or system male Sprague-Dawley rats; details: 20 nanomolar [^3 H]-glycine, rat cortical/hippocampal synaptic membranes, pH 7.1, 30 minutes at 4° C.
T1 construct: neuronal synaptic membranes are prepared from adult (about 250 g) male Sprague-Dawley rats; from tissue; host or cells: cerebral cortices and hippocampi of adult male Sprague-Dawley rats, synaptic membranes
Description: as §1
In the [^3 H]-glycine binding assay, neuronal synaptic membranes are prepared from adult (about 250 g) male Sprague-Dawley rats. Freshly dissected cortices and hippocampi are homogenized in 0.32M sucrose (110 mg/mL). Synaptosomes are isolated by centrifugation (1000 xg, 10 min), the supernatant is pelleted (20,000 xg, 20 min) and resuspended in double-distilled water. The suspension was centrifuged for 20 minutes at 8,000 xg. The resulting […] and buffy coat are washed twice (48,000 xg, 10 mins, resuspension in double-deionized water). The final pellet is quickly frozen (dry ice/ethanol bath) under double-deionized water and stored at -70° C.
On the day of the experiment, thawed synaptic membranes are homogenized with a Brinkmann Polytron (™, Brinkmann Instruments, Westbury, N.Y.) tissue homogenizer in 50 millimolar tris(hydroxymethyl)aminomethane citrate, pH 7.1. The membranes are incubated with 0.04% Sufact-AMPS X100 (™, Pierce, Rockford, Ill.) in buffer for 20 minutes at 37° C. and washed six times by centrifugation (48,000 xg, 10 min) and resuspended in buffer. The final pellet is homogenized at 200 mg wet weight/mL of the buffer for the binding assay.
For [^3 H]-glycine binding at the N-methyl-D-aspartate receptor, 20 nanomolar [^3 H]-glycine (40-60 Ci/mmol, New England Nuclear, Boston, Mass.) is incubated with the membranes suspended in 50 millimolar tris (hydroxymethyl)aminomethane citrate, pH 7.1 for 30 minutes at 4° C. Glycine, 1 millimolar, is used to define the nonspecific binding. […] Radioactivity is estimated by liquid scintillation counting. […]

[4] = tested on: NMDA receptor-mediated synaptic transmission in hippocampal slices; test: Test C: hippocampal slice test (HST), antagonism of NMDA-induced evoked response; assay type: cell-based, male Sprague-Dawley rats; details: 0 Mg++; for inhibition of the secondary PSs (antagonism) / reversal of the inhibition by D-serine: Example 1 at 15.2 μM, Example 4 at 10 μM; for concentration at which glycine antagonism is exhibited: evaluated at a multiple of the Test B IC50
Description: as §1
The characterization of a compound as a glycine antagonist in the hippocampal slice test (HST) is dependent on (1) the ability of the compound to inhibit NMDA receptor-mediated synaptic transmission in hippocampal slices and (2) the subsequent reversal of these inhibitory effects by D-serine.
The procedure for the HST is as follows. Transverse hippocampal slices are obtained from male Sprague-Dawley rats weighting 80-150 gm. The rats are decapitated and the brains quickly removed and placed in cold Krebs-Ringersolution which contains (in millimolar) NaCl (122.6), NaHCO3 (26.2), KCl (5.4), MgSO4 (2.0), NaH2 PO4 (1.2), CaCl2 (2.0), and D-glucose (10.0). The hippocampus is dissected free from surrounding tissues, and 495 microns thick slices are cut and immediately transferred to a humidified static interface chamber with a 95% O2 :5% CO2 atmosphere at room temperature. Following a 1-hour equilibration period, slices are placed one at a time into a small perfusion chamber where they are completely submerged in continuously flowing oxygenated 2 millimolar Mg++ perfusate (4 mL/min) at 33° C. and allowed to equilibrate for 10 to 15 min.
For the electrophysiology part of the experiments, bipolar tungsten stimulating electrodes are positioned in the stratum radiatum of the CA3 cell body region of the hippocampus and a single-barrel glass microelectrode filled with Krebs-Ringer solution is positioned in the CA1 cell body region. Low frequency stimulation is then applied to area CA3 which evokes a primary population spike (PS) recorded from CA1. The primary PS represents the summation of a multiple of synaptic potentials mediated via the quisqualate receptor. The stimulus intensity is adjusted to evoke a PS of 1-4 mV amplitude and is maintained at this intensity throughout the experiment.
When the perfusion medium is then changed from 1 millimolar Mg++ to one containing 0 Mg++, the primary PS is followed by the appearance of many secondary PSs. The appearance of the secondary PSs are attributed to the unmasking of NMDA-mediated synaptic events in 0 Mg++. […] The effects of directly acting NMDA and indirectly acting NMDA (ie, glycine) receptor antagonists can also be differentiated by the ability of D-serine to reverse this inhibition.

[5] = tested on: glutamate-evoked contractions of the guinea pig ileum; test: Test B: glutamate-evoked contractions of the guinea pig ileum; assay type: cell-based; details: Cavia porcellus; twitch responses evoked with 100 micromolar glutamate
Description: as §1
For glutamate-evoked contractions of the guinea pig ileum, the methodology is as described previously (Luzzi et. al., Br. J. Pharmacol., 95, 1271-1277 (1989)). The longitudinal muscle and associated myenteric plexus are removed and placed in oxygenated modified Krebs-Henseleit solution (118 millimolar NaCl, 4.7 millimolar KCl, 2.5 millimolar CaCl2, 1.2 millimolar KH2 PO4, 25 millimolar NaHCO3, and 11 millimolar glucose). Tissues are suspended on glass rods in organ baths under a resting tension of 0.5 g. After an initial depolarization with 80 millimolar potassium ion to remove possible blockade of the NMDA receptor channel complex with magnesium ion, twitch responses are evoked with 100 micromolar glutamate. Isometric mechanical responses are recorded. Tissues are equilibrated for at least 2 hours prior to addition of compounds.
A dose response curve for the effect of the unknown on the magnitude of the glutamate-evoked contractions is generated. Glutamate-evoked contractions are generated at 20 minute intervals, with the test compound added 5 minutes before the glutamate. The magnitude of the contraction with each dose of the unknown is expressed relative to the control, the third contraction evoked by 100 micromolar glutamate alone in the same tissue bath. The IC50 is obtained from a least-squares regression of a logit-log transformation of the data.
After the last contraction for the dose-response curve, 100 micromolar glycine is added to the bath 10 minutes after the previous addition of glutamate. […]

Row | Compound | reversal of the inhibition of the secondary PSs by D-serine [1] | IC50 [3] [µM] | IC50 [5] [µM] | other results
1 | NC(CCCP(=O)(O)O)C(=O)O (stereo not shown) [APV] | not reversed by D-serine | – | – | –
2 | O=C(O)c1cc(O)c2ccc(Cl)cc2n1 [7-chlorokynurenic acid] | reversed by D-serine | – | – | inhibition of the secondary PSs [1]: inhibit the secondary PSs
3 | c1ccc(C2(N3CCCCC3)CCCCC2)cc1 [PCP] | not reversed by D-serine | – | – | –
4 | C[C@]12N[C@H](Cc3ccccc31)c1ccccc12 [MK-801] | not reversed by D-serine | – | – | –
5 | O=c1[nH][nH]c(=O)c2c1[nH]c1cc(Cl)cc(Cl)c12 [Example 4] | – | 0.33 | 6.4 | neuroprotection (relative to sham-operated control) [2]: over 75%; inhibition of the secondary PSs (antagonism) [4]: antagonist; reversal of the inhibition by D-serine [4]: reversible by D-serine; concentration at which glycine antagonism is exhibited [4]: 10 µM
6 | O=c1[nH][nH]c(=O)c2c1[nH]c1cc(C(F)(F)F)cc(C(F)(F)F)c12 [Example 7, 7,9-Ditrifluoromethylpyridazino[4,5-b]indole-1,4-dione] | – | 2.7 | 69 | –
7 | NC1CCN(O)C1=O (stereo not shown) [HA-966] | reversed by D-serine | – | – | inhibition of the secondary PSs [1]: inhibit the secondary PSs
8 | O=c1[nH][nH]c(=O)c2c1[nH]c1cc(Cl)ccc12 [Example 1] | – | 0.55 | 13 | neuroprotection (relative to sham-operated control) [2]: 34%; inhibition of the secondary PSs (antagonism) [4]: antagonist; reversal of the inhibition by D-serine [4]: reversible by D-serine; concentration at which glycine antagonism is exhibited [4]: 15.2 µM
9 | O=C(O)C1CN(CCCP(=O)(O)O)CCN1 (stereo not shown) [CPP] | not reversed by D-serine | – | – | –
